Assay results as given in patent US6461845B1, “Recombinant hepatitis C virus RNA replicase” (Emory University, priority 1995, dated 2002).

Columns and labels:
[1] = tested on: poly(A) template; experiment: poly(U) synthesis assay using a poly(A) template; type: biochemical; conditions: described reaction conditions
Protocol: (§1) Assay conditions for r-HCV-RDRP activity: The preferred conditions for assaying RDRP activity are described. The alternative conditions are operative, and designated as alternatives, in parentheses. Incubations were carried out 20 or 50 μl in final volumes that contain: 20-50 mM HEPES-pH 8.0 (alternative is 20 mM Tris-HCl;pH 7.5); 1.5-5 mM MnCl2; 100 mM ammonium acetate; 1-4 mM dithiothreitol (DDT), 500 μM each ATP, CTP, and GTP (alternative: 500 μM GTP and 250 μM each ATP and CTP); 10 μM UTP; 1-20 μCi of [α-^33P]UTP (alternative is to use [α-^32P]UTP or [^3H]UTP), 10-20 U of RNasin; and rHCV-RDRP protein. […]
(§2) Labeled nucleotides incorporated into RNA are precipitated by TCA. The precipitates are collected, washed and counted, e.g. in a scintillation counter to measure the quantity of RNA synthesized in the enzyme reaction. […] [^3H]poly(U) was quantitated by liquid scintillation spectrometry (LKB 1218 RackBeta). The synthesized RNA can also be analyzed by gel electrophoresis to determine the size of the synthesized RNA chains. For gel analysis the reaction mixture is inactivated with 100 μl of proteinase K buffer; digested with proteinase K, processed and the RNA products are analyzed by formaldehyde/agarose gel electrophoresis or 6% denaturing polyacrylamide-7 M urea gel electrophoresis.

[2] = tested on: globin mRNA template; experiment: RNA synthesis assay using a globin mRNA template; type: biochemical; conditions: described reaction conditions
Protocol: as §1, §2

[3] = RNA synthesis by r-HCV-RDRP in vitro, Mg++ dependence; type: biochemical
Protocol: Both reactions were >90% primer-dependent under the described reaction conditions.
Assay conditions for r-HCV-RDRP activity: The preferred conditions for assaying RDRP activity are described. The alternative conditions are operative, and designated as alternatives, in parentheses. Incubations were carried out 20 or 50 μl in final volumes that contain: 20-50 mM HEPES-pH 8.0 (alternative is 20 mM Tris-HCl;pH 7.5); 1.5-5 mM MnCl2; 100 mM ammonium acetate; 1-4 mM dithiothreitol (DDT), 500 μM each ATP, CTP, and GTP (alternative: 500 μM GTP and 250 μM each ATP and CTP); 10 μM UTP; 1-20 μCi of [α-^33P]UTP (alternative is to use [α-^32P]UTP or [^3H]UTP), 10-20 U of RNasin; and rHCV-RDRP protein. Templates: 500-1000 ng of a preferred heteropolymeric template (e.g., either a 98 nt 3′-end of HCV genomic RNA or HCV RNA that included both the 5′ and 3′ ends of genomic or negative stranded HCV RNA) per 50 μl incubation; (as an alternative template, poly(A)/oligo(U) on either 20 μg/ml poly(A)460-600, and 10 μg/ml oligo (U)5-25 (or 0.8 μg of 10:1 mix of poly(A)/oligo(U) per 50 μl incubation can be employed). If the enzyme preparation is not >90-95 % pure include 50 μg/ml of actinomycin D. Incubations are for 15-120 min at 30° C. (or 22° C.). Note: stop incubations by adding 100 mM EDTA and then process for trichloroacetic acid (TCA) precipitation.

[4] = isoelectric point of the enzyme; type: physicochemical

## r-HCV-RDRP: Modified recombinant HCV RNA-dependent RNA polymerase (NS5B, type 1a) with N-terminal Met-Ala dipeptide, expressed in E. coli
[1]
  primer dependence of poly(U) synthesis: > 90%
[2]
  primer dependence of RNA synthesis: > 90%
[3]
  Mg++ concentration giving maximal activity: about 20 mM
[3]; no Mg++
  activity in the absence of Mg++: no detectable activity
[4]
  isoelectric point: approximately 8.8
